Patent US9803002B2, “Anti-wall teichoic antibodies and conjugates” (Genentech, Inc., priority 2013, dated 2017)
Values after ≈ are worked out from the molar mass of the structure shown. Like-named read-outs stand apart in the source and are kept apart here. The star is where a group is joined. Propanoyl(3-maleimido) = O=C1C=CC(=O)N1CCC(=O)*

How the values were obtained:
[1] = tested on: MRSA (NRS384 strain of USA300); test: MIC determinations for extracellular bacteria; details: Staphylococcus aureus, read-out: Extracellular MRSA MIC
Protocol: Dilutions of the antibiotic were made in quadruplicate in 96 well culture dishes. MRSA (NRS384 strain of USA300) was taken from an exponentially growing culture and diluted to 1×10^4 CFU/mL. Bacteria was cultured in the presence of antibiotic for 18-24 hours with shaking at 37° C. and bacterial growth was determined by reading the Optical Density (OD) at 630 nM. The MIC was determined to be the dose of antibiotic that inhibited bacterial growth by >90%.

MRSA [2] = test: Transfer of infection from peritoneal cells to MG63 osteoblasts in the presence of vancomycin; type: cell-based, Staphylococcus aureus; details: 5 μg/mL of vancomycin
Protocol: 6-8 week old female A/J mice (JAX™ Mice, Jackson Laboratories) were infected with 1×10^8 CFU of the NRS384 strain of USA300 by peritoneal injection. […] Peritoneal cells were then washed 2× in ice cold HB buffer. […] Free MRSA from the primary infection was stored overnight at 4° C. in Phosphate Buffered Saline Solution as a control for extracellular bacteria that were not subject to neutrophil killing.
Osteoblasts were plated in 24 well tissue culture plates and cultured to obtain a confluent layer. On the day of the experiment, the osteoblasts were washed once in RPMI (without supplements). MRSA or infected peritoneal cells were diluted in complete RPMI-10 and vancomycin was added at 5 μg/mL immediately prior to infection. Peritoneal cells were added to the osteoblasts at 1×10^6 peritoneal cells/mL. A sample of the cells was lysed with 0.1% triton-x to determine the actual concentration of live intracellular bacteria at the time of infection.
To generate a pool of intracellular S. aureus, A/J mice were infected with MRSA and infected peritoneal cells were taken 1 day post infection. […] The total number of surviving intracellular bacteria in each well was determined by plating cell lysates on agar plates. […]

[3] = tested on: MRSA (NRS384 strain of USA300); test: MIC determinations for intracellular bacteria inside mouse peritoneal macrophages; type: cell-based, Staphylococcus aureus; details: for MIC: Staphylococcus aureus, read-out: Intracellular MRSA MIC
MRSA [4] = details: TSB media; vancomycin 2 and 20 μg/mL, rifampin 0.02 and 0.2 μg/mL
USA300 = test: Pre-treatment in intravenous infection model in Balb/c mice; type: in vivo, mouse; details: antibodies 50 mg/Kg IV 30 minutes prior to infection; vancomycin 110 mg/Kg twice daily IP; day 4
Protocol: Balb/c mice were given a single dose of vehicle control (PBS) or 50 mg/Kg of antibodies by intravenous injection 30 minutes prior to infection with 2×10^7 CFU of USA300. […] Control mice were given twice daily treatments with 110 mg/Kg of vancomycin by intraperitoneal injection (Vanco). All mice were sacrificed on day 4 post-infection, and the total number of surviving bacteria in kidneys (2 kidneys pooled) was determined by plating.
(§1) 7 week old female mice were used for all in vivo experiments and infections were carried out by intravenous injection into the tail vein. A/J mice (Jackson Lab) were infected with a dose of 2×10^6 CFU. […] For studies examining the role of competing human IgG (SCID IVIG model), CB17.SCID mice (Charles River Laboratories, Hollister, Calif.) were reconstituted with GammaGard S/D IGIV Immune Globulin (ASD Healthcare, Brooks Ky.) using a dosing regimen optimized to achieve constant serum levels of >10 mg/mL of human IgG. IGIV was administered with an initial intravenous dose of 30 mg per mouse followed by a second dose of 15 mg/mouse by intraperitoneal injection after 6 hours, and subsequent daily dosings of 15 mg per mouse by intraperitoneal injection for 3 consecutive days. Mice were infected 4 hours after the first dose of IGIV with 2×10^7 CFU of MRSA diluted in phosphate buffered saline by intravenous injection. […]

MRSA (USA300) = test: Intravenous infection model in CB17.SCID mice reconstituted with human IgG; type: in vivo, mouse
Protocol: To confirm that the AAC would be effective in the presence of competing human antibodies in vivo, the in vivo infection model was modified to generate mice that express normal levels of human IgG in the serum. […] Four days after infection the bacterial load in the kidneys (FIG. 10C) was assessed.
Efficacy of the AAC was compared with that of treatment with vancomycin, the current standard of care treatment for MRSA infections. […] CB17.SCID mice were reconstituted with human IgG using a dosing regimen optimized to yield constant levels of at least 10 mg/mL of human IgG in serum.
as §1, with “days.” for “days. Mice were infected 4 hours after the first dose of IGIV with 2×10^7 CFU of MRSA diluted in phosphate buffered saline by intravenous injection.”

[5] = clinically achievable serum levels; cited from earlier work
staphopain A = target: T1, staphopain A (Staphylococcus aureus, UniProt P81297); type: biochemical; details: for Percent cleavage pH 7.2, Staphopain A: PBS pH 7.2, 2 hours at 37° C.; for Percent cleavage pH 7.2, Staphopain A / Cleavage product, Staphopain A: LC-MS
T1 sequence (P81297 215-388): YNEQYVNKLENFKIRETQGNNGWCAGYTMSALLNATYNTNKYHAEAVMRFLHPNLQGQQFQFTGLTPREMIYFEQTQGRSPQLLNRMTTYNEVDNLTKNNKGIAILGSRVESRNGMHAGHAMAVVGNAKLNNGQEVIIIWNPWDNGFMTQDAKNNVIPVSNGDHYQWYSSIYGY
Protocol: Fractions from each chromatography step were analyzed for activity, and 100 ul was used regardless of protein concentration. Samples were incubated overnight at 37° C. and subsequently analyzed by LC-MS to identify fractions where protease cleavage of the linker-antibiotic had occurred. Pooled active fractions from the Q Sepharose FF chromatography were measured to have a total protein concentration of 14 mg/ml. 200 μg of the pool was diluted to 2 mg/ml in PBS and was incubated with and without N-ethylmaleimide (NEM, Sigma) at a concentration of 0.1 mM final. Samples were incubated at room temperature for 1 hour. […] At 2 hours, samples were analyzed by LC-MS to identify whether protease cleavage of the linker-antibiotic had occurred. About 50 ul of the active fractions from SEC were incubated with 0.1 mM Alexa Fluor 488 C5 maleimide (Invitrogen) for 1 hour regardless of protein concentration for labeling. Cleavage assays with purified proteases were performed by incubating 5 uM of the thioFAB conjugate with 50 nM protease in a final volume of 100 ul. Assays were either performed in PBS pH 7.2, 4 mM L-Cys, 2.5 mM EDTA or 100 mM Sodium Citrate pH 5, 100 mM NaCl, 4 mM L-Cys, 2.5 mM EDTA. Samples were incubated for 2 hours at 37° C. At 2 hours, cleavage reactions were quenched by diluting 1:1 with 1% TFA. Samples were subsequently run on LC-MS to determine percent linker cleavage. Percent cleavage was determined by integrating the A280 chromatograms of the cleaved and intact species.
(§2) 5 μM of thioFAB 4497 MP-LAFGA-QSY7(“core peptide” disclosed as SEQ ID NO: 135) and thioFAB 4497 MP-LAFAA-QSY7 (“core peptide” disclosed as SEQ ID NO: 136) (FIG. 30) were incubated with 50 nM of protease in PBS pH 7.2, 4 mM L-Cys, 2.5 mM EDTA for 2 hours at 37° C. At 2 hours, cleavage reactions were quenched by diluting 1:1 with 1% TFA. Samples were subsequently run on LC-MS to determine percent linker cleavage.
5 μM of AAC-193 was incubated with 50 nM of protease in either PBS pH 7.2, 4 mM L-Cys, 2.5 mM EDTA or 100 mM Sodium Citrate pH 5, 100 mM NaCl, 4 mM L-Cys, 2.5 mM EDTA for 2 hours at 37° C. At 2 hours, cleavage reactions were quenched by diluting 1:1 with 1% TFA. Samples were subsequently run on LC-MS to determine percent linker cleavage.

staphopain B = target: T2, staphopain B (Staphylococcus aureus, UniProt P0C1S6); type: biochemical; details: for Percent cleavage pH 7.2, Staphopain B: PBS pH 7.2, 2 hours at 37° C.; for Percent cleavage pH 7.2, Staphopain B / Cleavage product, Staphopain B: LC-MS
T2 construct: purchased Sigma-Aldrich S3951
T2 sequence (P0C1S6 220-393): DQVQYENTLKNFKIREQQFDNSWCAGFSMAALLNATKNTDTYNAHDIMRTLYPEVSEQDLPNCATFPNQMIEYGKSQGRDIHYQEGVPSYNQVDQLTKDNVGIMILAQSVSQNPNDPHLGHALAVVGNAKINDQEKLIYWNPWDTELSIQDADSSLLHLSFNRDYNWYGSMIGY
Protocol: Cleavage assays with purified proteases were performed by incubating 5 uM of the thioFAB conjugate with 50 nM protease in a final volume of 100 ul. Assays were either performed in PBS pH 7.2, 4 mM L-Cys, 2.5 mM EDTA or 100 mM Sodium Citrate pH 5, 100 mM NaCl, 4 mM L-Cys, 2.5 mM EDTA. Samples were incubated for 2 hours at 37° C. At 2 hours, cleavage reactions were quenched by diluting 1:1 with 1% TFA. Samples were subsequently run on LC-MS to determine percent linker cleavage. Percent cleavage was determined by integrating the A280 chromatograms of the cleaved and intact species. The antibiotic or chromophore moieties added on the C-terminus of the linkers add significant hydrophobicity, such that thioFAB with intact linkers and thioFAB with cleaved linkers are baseline resolved.
At 2 hours, cleavage reactions were quenched by diluting 1:1 with 1% TFA. Samples were subsequently run on LC-MS to determine percent linker cleavage.

human cathepsin B = human cathepsin B (Homo sapiens, UniProt P07858); test: Linker cleavage assay with purified protease; type: biochemical; details: for Percent cleavage pH 7.2, Cathepsin B: PBS pH 7.2, 2 hours at 37° C.; for Percent cleavage pH 7.2, Cathepsin B / Cleavage product, Cathepsin B: LC-MS
Protocol: The experimental mal-peptide-QSY7 linkers were conjugated to THIOFAB S4497 to evaluate the cleavability of these linkers.
Fractions from each chromatography step were analyzed for activity, and 100 ul was used regardless of protein concentration. Samples were incubated overnight at 37° C. and subsequently analyzed by LC-MS to identify fractions where protease cleavage of the linker-antibiotic had occurred. Pooled active fractions from the Q Sepharose FF chromatography were measured to have a total protein concentration of 14 mg/ml. 200 μg of the pool was diluted to 2 mg/ml in PBS and was incubated with and without N-ethylmaleimide (NEM, Sigma) at a concentration of 0.1 mM final. Samples were incubated at room temperature for 1 hour. […] At 2 hours, samples were analyzed by LC-MS to identify whether protease cleavage of the linker-antibiotic had occurred. About 50 ul of the active fractions from SEC were incubated with 0.1 mM Alexa Fluor 488 C5 maleimide (Invitrogen) for 1 hour regardless of protein concentration for labeling. Cleavage assays with purified proteases were performed by incubating 5 uM of the thioFAB conjugate with 50 nM protease in a final volume of 100 ul. Assays were either performed in PBS pH 7.2, 4 mM L-Cys, 2.5 mM EDTA or 100 mM Sodium Citrate pH 5, 100 mM NaCl, 4 mM L-Cys, 2.5 mM EDTA. Samples were incubated for 2 hours at 37° C. At 2 hours, cleavage reactions were quenched by diluting 1:1 with 1% TFA. Samples were subsequently run on LC-MS to determine percent linker cleavage. Percent cleavage was determined by integrating the A280 chromatograms of the cleaved and intact species. The antibiotic or chromophore moieties added on the C-terminus of the linkers add significant hydrophobicity, such that thioFAB with intact linkers and thioFAB with cleaved linkers are baseline resolved.
as §2

MRSA [6] = test: Intravenous infection model in CB17.SCID mice; type: in vivo, mouse; details: 50 mg/Kg AAC or 0.5 mg/Kg antibiotic, kidneys 4 days after infection
Protocol: Mice were sacrificed 4 days after infection and the total number of surviving bacteria per mouse (2 kidneys pooled) was determined by plating.
as §1, with “injection. Mice that received vancomycin were treated with twice daily intraperitoneal injections of 100 mg/Kg of vancomycin starting between 6 and 24 hours post infection for the duration of the study.” for “injection.”

[7] = MRSA inside mouse peritoneal macrophages, antibiotics added 1 day after infection, survival assessed 24 hours later
[8] = 5 μM conjugate, 50 nM protease, Sodium Citrate pH 5, 2 hours at 37° C.
[9] = listed as MP-LAFG-piperazino-rifamycin

Compound | MIC [1] [µg/mL] | MIC [3, 7] [µg/mL] | Serum Cmax [5] [ng/mL] | Percent cleavage pH 7.2, Staphopain A (staphopain A; 5 μM conjugate, 50 nM protease) [%] | Cleavage product, Staphopain A (staphopain A) | Percent cleavage pH 7.2, Staphopain B (staphopain B; 5 μM conjugate, 50 nM protease) [%] | Cleavage product, Staphopain B (staphopain B) | Percent cleavage pH 7.2, Cathepsin B (human cathepsin B; 5 μM conjugate, 50 nM protease) [%] | Cleavage product, Cathepsin B (human cathepsin B) | also measured
CN[C@H](CC(C)C)C(=O)N[C@H]1C(=O)N[C@@H](CC(N)=O)C(=O)N[C@H]2C(=O)N[C@H]3C(=O)N[C@H](C(=O)N[C@H](C(=O)O)c4cc(O)cc(O)c4-c4cc3ccc4O)[C@H](O)c3ccc(c(Cl)c3)Oc3cc2cc(c3O[C@@H]2O[C@H](CO)[C@@H](O)[C@H](O)[C@H]2O[C@H]2C[C@](C)(N)[C@H](O)[C@H](C)O2)Oc2ccc(cc2Cl)[C@H]1O [Vancomycin] | 1 (≈ 0.69 µM) | > 100 | 10000 to 40000 | – | – | – | – | – | – | intracellular bacteria in MG63 wells 1 day post infection (MRSA [2]; similar dose of free (extracellular) MRSA): 375 intracellular bacteria; intracellular bacteria in MG63 wells 1 day after infection (MRSA [2]; wells infected with 3×10^4 intracellular bacteria (peritoneal cells)): 8,750 intracellular bacteria; bacteria remained viable during the first two hours of antibiotic treatment (MRSA [4]): 90%; loss in viable bacteria by 5 hours (MRSA [4]): 100 fold; effect of pre-treatment on bacterial loads in kidneys (USA300): cleared the infection in all of the mice tested; efficacy in kidneys (FIG. 11A) (MRSA (USA300); AAC single dose 50 mg/Kg day 1, vancomycin 100 mg/Kg twice daily, day 4): failed to clear the infection; reduction of bacterial loads (MRSA (USA300); twice-daily 100 mg/Kg, treatment initiated more than 1 day post infection): about 50 fold
CCCCCCCCCC(=O)N[C@@H](Cc1c[nH]c2ccccc12)C(=O)N[C@H](CC(N)=O)C(=O)N[C@@H](CC(=O)O)C(=O)N[C@@H]1C(=O)NCC(=O)N[C@@H](CCCN)C(=O)N[C@@H](CC(=O)O)C(=O)N[C@H](C)C(=O)N[C@@H](CC(=O)O)C(=O)NCC(=O)N[C@H](CO)C(=O)N[C@@H]([C@H](C)CC(=O)O)C(=O)N[C@@H](CC(=O)c2ccccc2N)C(=O)O[C@@H]1C [Daptomycin] | 4 (≈ 2.47 µM) | > 100 | 80000 | – | – | – | – | – | – | –
CO[C@H]1/C=C/O[C@@]2(C)Oc3c(C)c(O)c4c(O)c(c(/C=N/N5CCN(C)CC5)c(O)c4c3C2=O)NC(=O)/C(C)=C\C=C\[C@H](C)[C@H](O)[C@@H](C)[C@@H](O)[C@@H](C)[C@H](OC(C)=O)[C@@H]1C [Rifampicin] | 0.004 (≈ 0.00486 µM) | > 20 | 20000 | – | – | – | – | – | – | bacteria remained viable during the first two hours of antibiotic treatment (MRSA [4]): 90%; loss in viable bacteria by 5 hours (MRSA [4]): 100 fold
MP-LAFAA-QSY7: maleimido-propionic-Leu-Ala-Phe-Ala-Ala linker with QSY7 as antibiotic surrogate, tested conjugated to thioFAB S4497 ({Propanoyl(3-maleimido)}-LAFAA-QSY7; also: conjugated to thioFAB S4497) | – | – | – | 23 | A-QSY7 | 100 | A-QSY7 | 100 | A-QSY7, and QSY7 | –
CC(=O)NC[C@H]1CN(c2ccc(N3CCOCC3)c(F)c2)C(=O)O1 [Linezolid] | 0.3 (≈ 0.889 µM) | – | 10000 | – | – | – | – | – | – | MIC ([3]; 24 h): > 20 µg/mL
dimethylpiperidyl benzoxazino rifamycin [dimethyl-pipBOR] | – | – | – | – | – | – | – | – | – | efficacy when given 1 day post infection (MRSA [6]): failed to clear the infection; killing intracellular MRSA when tested as free antibiotics [3]: more potent than rifampicin
CO[C@H]1/C=C/O[C@@]2(C)Oc3c(C)c(O)c4c(=O)c(c5oc6cc(N7CCN(C(=O)OCc8ccc(NC(=O)CNC(=O)[C@H](Cc9ccccc9)NC(=O)[C@H](C)NC(=O)[C@H](CC(C)C)NC(=O)CCN9C(=O)C=CC9=O)cc8)CC7)cc(O)c6nc-5c4c3C2=O)NC(=O)/C(C)=C\C=C\[C@H](C)[C@H](O)[C@@H](C)[C@@H](O)[C@@H](C)[C@H](OC(C)=O)[C@@H]1C [LA-104, MP-LAFG-PABC-(piperazinoBOR)] | – | – | – | 46 | piperazino- | 100 | piperazino- | 64 | Phe-Gly-piperazino-rifamycin | Percent cleavage pH 5, Staphopain A (staphopain A; [8]): 100%; Cleavage product, Staphopain A (staphopain A; [9]): free rifamycin; Percent cleavage pH 5, Staphopain B (staphopain B; [8]): 100%; Cleavage product, Staphopain B (staphopain B; [9]): free rifamycin; Percent cleavage pH 5, Cathepsin B (human cathepsin B; [8]): 100%
MP-LAFGA-QSY7: maleimido-propionic-Leu-Ala-Phe-Gly-Ala linker with QSY7 as antibiotic surrogate, tested conjugated to thioFAB S4497 ({Propanoyl(3-maleimido)}-LAFGA-QSY7; also: conjugated to thioFAB S4497) | – | – | – | 38 | A-QSY7 | 100 | A-QSY7 | 100 | A-QSY7 | –
piperidyl benzoxazino rifamycin [pipBOR] | – | – | – | – | – | – | – | – | – | killing intracellular MRSA when tested as free antibiotics [3]: more potent than rifampicin
